From patent US8912121B2, “Herbicidal compositions comprising 4-amino-3-chloro-5-fluoro-6-(4-chloro-2-fluoro-3-methoxyphenyl)pyridine-2-carboxylic acid or a derivative thereof and certain PS II inhibitors” (Dow Agrosciences LLC, priority 2012, dated 2014)

Legend:
[1] = system: SCPMA (Schoenoplectus maritimus, sea clubrush); test: In-water applied mixtures, transplanted paddy rice, greenhouse; assay type: in vivo, Schoenoplectus maritimus (L.) Lye; conditions: 20 DAA
Method: (§1) Weed seeds or nutlets of the desired test plant species were planted in puddled soil (mud) prepared by mixing a shredded, non-sterilized mineral soil (50.5 percent silt, 25.5 percent clay, and 24 percent sand, with a pH of about 7.6 and an organic matter content of about 2.9 percent) and water at a 1:1 volumetric ratio. The prepared mud was dispensed in 365 mL aliquots into 16-ounce (oz.) non-perforated plastic pots with a surface area of 86.59 square centimeters (cm^2) leaving a headspace of 3 centimeters (cm) in each pot Mud was allowed to dry overnight prior to planting or transplanting. Rice seeds were planted in Sun Gro MetroMix® 306 planting mixture, which typically has a pH of 6.0 to 6.8 and an organic matter content of about 30 percent, in plastic plug trays. Seedlings at the second or third leaf stage of growth were transplanted into 840 mL of mud contained in 32-oz. non-perforated plastic pots with a surface area of 86.59 cm^2 4 days prior to herbicide application. The paddy was created by filling the headspace of the pots with 2.5 to 3 cm of water. When required to ensure good germination and healthy plants, a fungicide treatment and/or other chemical or physical treatment was applied. The plants were grown for 4-22 days in a greenhouse with an approximate 14 h photoperiod which was maintained at about 29° C during the day and 26° C. during the night. Nutrients were added as Osmocote® (19:6:12, N:P:K+ minor nutrients) at 2 g per 16-oz. pot and 4 g per 32-oz. pot. Water was added on a regular basis to maintain the paddy flood, and supplemental lighting was provided with overhead metal halide 1000-Watt lamps as necessary. The plants were employed for testing when they reached the first through fourth true leaf stage.
(§2) Treatments consisted of the acid or esters of 4-amino-3-chloro-5-fluoro-6-(4-chloro-2-fluoro-3-methoxy-phenyl)pyridine-2-carboxylic acid (compound A) each formulated as an SC (suspension concentrate) and various herbicidal components alone and in combination. Forms of compound A were applied on an acid equivalent basis.
(§3) Other herbicidal components were applied on an active ingredient basis and included photosystem II (PSII)-inhibits propanil formulated as […] bentazon-sodium formulated as Basagran®, and simetryne (technical grade material).
(§4) Treatment requirements for each compound or herbicidal component were calculated based upon the rates being tested, the concentration of active ingredient or acid equivalent in the formulation, an application volume of 2 mL per component per pot, and an application area of 86.59 cm^2 per pot.
(§5) For formulated compounds, a measured amount was placed in an individual 100 or 200 mL glass vial and was dissolved in a volume of 1.25% (v/v) Agri-Dex® crop oil concentrate to obtain application solutions.
(§6) For technical grade compounds, a weighed amount was placed in an individual 100 to 200 mL glass vial and was dissolved in a volume of acetone to obtain concentrated stock solutions. […] The concentrated stock solutions obtained were diluted with an equivalent volume of an aqueous mixture containing 2.5% (v/v) crop oil concentrate so that the final application solutions contained 1.25% (v/v) crop oil concentrate.
(§7) Applications were made by injecting with a pipetter appropriate amounts of the application solutions, individually and sequentially, into the aqueous layer of the paddy. Control plants were treated in the same manner with the solvent blank. Applications were made so that all treated plant material received the same concentrations of acetone and crop oil concentrate.
(§8) The treated plants and control plants were placed in a greenhouse as described above and water was added as needed to maintain a paddy flood. After approximately 3 weeks the condition of the test plants as compared with that of the untreated plants was determined visually and scored on a scale of 0 to 100 percent where 0 corresponds to no injury or growth inhibition and 100 corresponds to complete kill. […]

[2] = system: ECHOR (Echinochloa oryzoides, early watergrass); test: as above; assay type: in vivo, Echinochloa oryzoides (Ard.) Fritsch; conditions: 70 g ae/ha; 20 DAA
Method: as §1, §2, §3, §4, §5, §6, §7, §8

[3] = system: IPOHE (Ipomoea hederacea, ivyleaf morningglory); test: Postemergence foliar-applied mixtures, direct seeded rice, greenhouse; assay type: in vivo, Ipomoea hederacea Jacq.; conditions: post-emergence, 480 h
From the text: Seeds or nutlets of the desired test plant species were planted in a soil matrix prepared by mixing a loam or sandy loam soil (e.g., 28.6 percent silt, 18.8 percent clay, and 52.6 percent sand, with a pH of about 5.8 and an organic matter content of about 1.8 percent) and calcareous grit in an 80 to 20 ratio. The soil matrix was contained in plastic pots with a volume of 1 quart and a surface area of 83.6 square centimeters (cm^2). When required to ensure good germination and healthy plants, a fungicide treatment and/or other chemical or physical treatment was applied. The plants were grown for 8-22 days in a greenhouse with an approximate 14 h photoperiod which was maintained at about 29° C. during the day and 26° C. during the night. Nutrients (Peters Excel® 15-5-15 5-Ca 2-Mg and iron chelate) were applied in the irrigation solution as needed and water was added on a regular basis. Supplemental lighting was provided with overhead metal halide 1000-Watt lamps as necessary. The plants were employed for testing when they reached the first through fourth true leaf stage.
Treatments consisted of the acid or esters of 4-amino-3-chloro-5-fluoro-6-(4-chloro-2-fluoro-3-methoxy-phenyl) pyridine-2-carboxylic acid (Compound A), each formulated as an SC (suspension concentrate), and various herbicidal components alone and in combination. Forms of compound A were applied on an acid equivalent basis.
Other herbicidal components were applied on an active ingredient basis and included Photosystem II (PSII)-inhibiting herbicides propanil formulated as Stam® M4 EC, bentazon-sodium formulated as Basagran®, atrazine formulated as Atrazine 90 WDG, bromoxynil octanoate ester formulated as Buctril®, simetryne (technical grade material), simazine formulated as Princep® Caliber 90, ioxynil (technical grade material), cyanazine (technical grade material), and hexazinone (technical grade material).
Treatment requirements were calculated based upon the rates being tested, the concentration of active ingredient or acid equivalent in the formulation, and a 12 mL application volume at a rate of 187 L/ha.
For treatments comprised of formulated compounds, measured amounts of compounds were placed individually in 25 mL glass vials and diluted in a volume of 1.25% (v/v) Agri-Dex® crop oil concentrated to obtain 12× stock solutions. […] Application solutions were prepared by adding an appropriate amount of each stock solution (e.g., 1 mL) and diluted to the appropriate final concentrations with the addition of 10 mL of an aqueous mixture of 1.25% (v/v) crop oil concentrate so that the final spray solutions contained 1.25+/−0.05% (v/v) crop oil concentrate.
For treatments comprised of technical compounds, weighed amounts can be placed individually in 25 mL glass vials and dissolved in a volume of 97:3 v/v acetone/DMSO to obtain 12× stock solutions. […] Application solutions can be prepared by adding an appropriate amount of each stock solution (e.g., 1 mL) and diluted to the appropriate final concentrations with the addition of 10 mL of an aqueous mixture of 1.5% (v/v) crop oil concentrate so that the final spray solutions contain 1.25% (v/v) crop oil concentrate. When technical materials are used, the concentrated stock solutions can be added to the spray solutions so that the final acetone and DMSO concentrations of the application solutions are 16.2% and 0.5%, respectively.
For treatments comprised of formulated and technical compounds, weighed amounts of the technical materials were placed individually in 25 mL glass vials and dissolved in a volume of 97:3 v/v acetone/DMSO to obtain 12× stock solutions, and measured amounts of the formulated compounds were placed individually in 25 mL glass vials and diluted in a volume of 1.5% (v/v) crop oil concentrate or water to obtain 12× stock solutions. […]

In the case of `CCCCOC(=O)c1nc(-c2ccc(Cl)c(OC)c2F)c(F)c(N)c1Cl` [Compound A n-Butyl Ester], the “Visual Weed Control (%) Obs” value ([1]; 35 g ae/ha) is reported as 0%, the “Visual Weed Control (%) Obs” value ([1]; 70 g ae/ha) is reported as 0% and the “Visual Weed Control (%) Obs” value [2] is reported as 40%. For the same compound, the pest or weed control at 16 g/ha ([3]; read-out: Visual Weed Control (%) Obs, 16 g ae/ha, 20 DAA) was 15% and the pest or weed control at 17.5 g/ha ([3]; read-out: Visual Weed Control (%) Obs, 17.5 g ae/ha, 20 DAA) was 48%.
